The target in test [1] is T1, Estrogen receptor (Homo sapiens, UniProt P03372).
T1 sequence (P03372 whole entry): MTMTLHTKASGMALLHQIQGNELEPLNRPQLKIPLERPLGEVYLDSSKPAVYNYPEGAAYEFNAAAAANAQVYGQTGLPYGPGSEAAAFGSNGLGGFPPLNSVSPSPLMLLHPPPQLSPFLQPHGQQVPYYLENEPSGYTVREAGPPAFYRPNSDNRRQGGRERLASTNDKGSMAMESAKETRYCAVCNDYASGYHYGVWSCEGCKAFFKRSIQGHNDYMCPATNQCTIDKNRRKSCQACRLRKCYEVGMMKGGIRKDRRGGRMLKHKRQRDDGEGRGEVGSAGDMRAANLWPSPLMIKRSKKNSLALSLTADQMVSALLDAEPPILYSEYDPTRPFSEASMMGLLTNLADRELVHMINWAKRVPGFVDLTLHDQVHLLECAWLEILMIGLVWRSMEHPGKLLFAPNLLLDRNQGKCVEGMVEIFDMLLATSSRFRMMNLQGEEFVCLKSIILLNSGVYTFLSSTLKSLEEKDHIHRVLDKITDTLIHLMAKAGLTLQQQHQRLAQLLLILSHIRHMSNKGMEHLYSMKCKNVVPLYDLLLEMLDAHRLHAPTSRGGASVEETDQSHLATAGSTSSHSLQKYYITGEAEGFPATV
Briefly: potentiators of ERα–SRC-1 coactivator binding, dose response, biochemical, TR-FRET, ERα LBD (AID 737). (TR-FRET usually uses a lanthanide donor and a delayed reading to cut background.)

In test [2] the target is Epstein-Barr nuclear antigen 1 (Epstein-Barr virus (strain B95-8) (HHV-4) (Human herpesvirus 4), UniProt P03211). Briefly: EBNA-1 inhibitors, dose response, biochemical, fluorescence polarization, 1536-well (AID 2381).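 Further: fluorescence polarization of a Cy5 DNA probe bound by EBNA-1 protein.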 Also noted: species or system human gammaherpesvirus 4.
Chain of Epstein-Barr nuclear antigen 1 (P03211 whole entry): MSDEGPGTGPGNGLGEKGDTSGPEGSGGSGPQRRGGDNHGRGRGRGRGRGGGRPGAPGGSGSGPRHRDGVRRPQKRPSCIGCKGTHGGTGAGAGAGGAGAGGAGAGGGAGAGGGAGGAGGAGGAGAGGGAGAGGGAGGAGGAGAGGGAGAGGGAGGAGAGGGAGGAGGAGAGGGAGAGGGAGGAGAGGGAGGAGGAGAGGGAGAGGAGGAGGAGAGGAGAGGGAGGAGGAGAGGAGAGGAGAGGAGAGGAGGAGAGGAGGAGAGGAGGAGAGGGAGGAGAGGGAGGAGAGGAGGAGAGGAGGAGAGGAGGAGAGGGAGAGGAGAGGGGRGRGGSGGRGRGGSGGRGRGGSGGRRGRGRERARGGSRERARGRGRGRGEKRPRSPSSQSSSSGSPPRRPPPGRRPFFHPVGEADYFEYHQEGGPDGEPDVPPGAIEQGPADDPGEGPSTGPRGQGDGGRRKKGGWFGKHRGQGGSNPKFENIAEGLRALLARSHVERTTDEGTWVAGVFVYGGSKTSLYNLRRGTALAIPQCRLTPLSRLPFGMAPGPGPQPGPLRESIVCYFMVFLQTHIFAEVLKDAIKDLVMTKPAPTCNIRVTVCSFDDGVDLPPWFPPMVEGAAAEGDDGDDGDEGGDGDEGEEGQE
Test [3] concerns the target Lytic switch protein BZLF1 (Epstein-Barr virus (strain B95-8) (HHV-4) (Human herpesvirus 4), UniProt P03206). Briefly: EBV ZTA inhibitors, dose response, counter-screen for EBNA-1 inhibitor project, biochemical, fluorescence polarization, Epstein-Barr virus, 1536-well (AID 2377).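 Further: fluorescence polarization of Cy5-labelled ZRE DNA probe bound by purified Zta.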 More on the design: species or system human gammaherpesvirus 4.
Test [4] concerns the target T2, Sphingosine 1-phosphate receptor 4 (Homo sapiens, UniProt O95977).
T2 sequence (O95977 whole entry): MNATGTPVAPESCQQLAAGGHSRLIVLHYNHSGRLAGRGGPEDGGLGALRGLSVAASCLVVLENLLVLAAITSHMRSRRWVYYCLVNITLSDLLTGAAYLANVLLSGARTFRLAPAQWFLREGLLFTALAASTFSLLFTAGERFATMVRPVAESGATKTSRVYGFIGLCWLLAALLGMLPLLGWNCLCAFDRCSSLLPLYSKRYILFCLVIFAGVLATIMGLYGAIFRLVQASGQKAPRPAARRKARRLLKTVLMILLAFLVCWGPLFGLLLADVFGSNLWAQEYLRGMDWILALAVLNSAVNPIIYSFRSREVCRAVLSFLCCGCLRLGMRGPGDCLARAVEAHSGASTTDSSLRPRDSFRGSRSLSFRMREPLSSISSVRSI
Briefly: Fluorescence dose response cell-based high throughput screening assay for antagonists of the Sphingosine 1-Phosphate Receptor 4 (S1P4). [Related pubchem assays: 1524 (Confirmation in triplicates.), 1510 (Primary screen.)]. Format: functional.

The target in test [5] is Prothrombin (Homo sapiens, UniProt P00734). Briefly: Thrombin 1536 HTS Dose Response Confirmation. [Related pubchem assays: 1046 (Thrombin 1536 HTS; hits were confirmed in this assay)]. Format: functional.
Test [6] addresses Sphingosine 1-phosphate receptor 1 (Homo sapiens, UniProt P21453). Format: functional.
In test [7] the target is T3, Replicative DNA helicase DnaB (Mycobacterium tuberculosis, UniProt P9WMR3).
T3 sequence (P9WMR3 whole entry): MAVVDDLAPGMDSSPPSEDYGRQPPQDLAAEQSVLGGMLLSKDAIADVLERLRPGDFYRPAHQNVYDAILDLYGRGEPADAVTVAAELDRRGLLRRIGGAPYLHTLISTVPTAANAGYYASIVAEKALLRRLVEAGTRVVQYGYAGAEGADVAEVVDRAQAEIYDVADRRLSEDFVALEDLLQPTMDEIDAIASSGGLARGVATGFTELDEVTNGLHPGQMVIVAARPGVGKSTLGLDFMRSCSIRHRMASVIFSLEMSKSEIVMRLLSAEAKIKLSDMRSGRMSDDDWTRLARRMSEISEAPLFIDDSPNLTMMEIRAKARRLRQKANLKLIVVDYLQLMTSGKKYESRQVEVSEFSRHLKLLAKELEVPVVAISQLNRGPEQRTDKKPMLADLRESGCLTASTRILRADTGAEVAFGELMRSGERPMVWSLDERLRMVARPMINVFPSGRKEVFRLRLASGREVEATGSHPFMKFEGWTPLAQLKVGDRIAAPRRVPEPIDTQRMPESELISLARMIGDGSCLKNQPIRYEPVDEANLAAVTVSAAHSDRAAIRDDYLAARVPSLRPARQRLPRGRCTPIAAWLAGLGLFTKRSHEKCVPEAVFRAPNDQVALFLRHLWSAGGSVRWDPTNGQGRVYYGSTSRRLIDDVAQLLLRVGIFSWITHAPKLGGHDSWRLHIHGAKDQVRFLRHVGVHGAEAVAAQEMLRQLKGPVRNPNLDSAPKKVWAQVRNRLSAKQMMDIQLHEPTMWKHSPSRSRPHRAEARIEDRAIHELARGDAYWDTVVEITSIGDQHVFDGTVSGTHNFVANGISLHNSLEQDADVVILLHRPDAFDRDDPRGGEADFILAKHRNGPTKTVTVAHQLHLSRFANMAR
The test can be described thus: DnaB intein splicing inhibitors, dose response, biochemical, cell-free fluorescence (AID 449749). The class given is functional.

The target of test [8] is T4, Protein RecA (Mycobacterium tuberculosis, UniProt P9WHJ3).
T4 sequence (P9WHJ3 whole entry): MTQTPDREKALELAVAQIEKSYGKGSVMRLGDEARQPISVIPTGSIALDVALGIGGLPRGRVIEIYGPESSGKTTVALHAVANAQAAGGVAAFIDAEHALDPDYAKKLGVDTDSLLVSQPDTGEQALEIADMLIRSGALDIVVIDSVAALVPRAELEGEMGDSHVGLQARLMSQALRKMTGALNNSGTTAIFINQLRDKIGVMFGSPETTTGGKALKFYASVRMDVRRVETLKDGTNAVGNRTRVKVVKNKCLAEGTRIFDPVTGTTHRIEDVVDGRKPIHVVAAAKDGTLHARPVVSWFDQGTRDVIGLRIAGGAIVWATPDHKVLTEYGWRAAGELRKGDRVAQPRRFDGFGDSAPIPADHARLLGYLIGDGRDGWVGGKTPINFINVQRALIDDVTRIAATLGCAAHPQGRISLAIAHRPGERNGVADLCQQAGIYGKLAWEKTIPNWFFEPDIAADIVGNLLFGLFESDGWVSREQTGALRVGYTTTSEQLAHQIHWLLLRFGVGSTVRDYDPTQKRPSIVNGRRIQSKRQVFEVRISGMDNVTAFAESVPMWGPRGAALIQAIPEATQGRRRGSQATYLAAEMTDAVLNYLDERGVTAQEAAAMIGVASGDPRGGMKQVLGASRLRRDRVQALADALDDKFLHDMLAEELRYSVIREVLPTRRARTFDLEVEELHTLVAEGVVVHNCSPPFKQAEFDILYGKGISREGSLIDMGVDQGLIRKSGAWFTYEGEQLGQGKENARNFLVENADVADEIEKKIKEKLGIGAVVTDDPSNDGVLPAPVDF
The test can be described thus: Fluorescence Cell-Free Homogeneous Dose Retest to Identify Inhibitors of RecA-Intein Splicing Activity. [Related pubchem assays (depositor defined):AID2097, AID2223, AID489010, AID492950]. Format: functional.

Test [9] in a line: Luminescent dose response cell-based high throughput screening assay for inhibitors of the Janus kinase 2 mutant JAK2V617F. [Related pubchem assays: 1446 (Primary screen.), 1521 (Confirmation assay.), 1486 (Counter screen.)]. Format: functional.
The nature of test [10]: THP-1 cell cytotoxicity, dose response, cytotoxicity control for Vif-APOBEC3G degradation inhibitor project, THP-1 cells (AID 1117359). The class given is functional. Conditions: Human immunodeficiency virus 1, THP-1.
In test [11] the target is T5, Polyadenylate-binding protein 1 (Homo sapiens, UniProt P11940). The test can be described thus: PABP1 MLLE–PAM2 binding inhibitor potency, dose response, biochemical, fluorescence polarization, FITC-PAM2 peptide (AID 602259). The class given is functional. The following applies: read-out: IC50_Mean. (In general: Fluorescence polarisation rises when a labelled molecule tumbles more slowly, as on binding a larger partner.)
T5 sequence (P11940 whole entry): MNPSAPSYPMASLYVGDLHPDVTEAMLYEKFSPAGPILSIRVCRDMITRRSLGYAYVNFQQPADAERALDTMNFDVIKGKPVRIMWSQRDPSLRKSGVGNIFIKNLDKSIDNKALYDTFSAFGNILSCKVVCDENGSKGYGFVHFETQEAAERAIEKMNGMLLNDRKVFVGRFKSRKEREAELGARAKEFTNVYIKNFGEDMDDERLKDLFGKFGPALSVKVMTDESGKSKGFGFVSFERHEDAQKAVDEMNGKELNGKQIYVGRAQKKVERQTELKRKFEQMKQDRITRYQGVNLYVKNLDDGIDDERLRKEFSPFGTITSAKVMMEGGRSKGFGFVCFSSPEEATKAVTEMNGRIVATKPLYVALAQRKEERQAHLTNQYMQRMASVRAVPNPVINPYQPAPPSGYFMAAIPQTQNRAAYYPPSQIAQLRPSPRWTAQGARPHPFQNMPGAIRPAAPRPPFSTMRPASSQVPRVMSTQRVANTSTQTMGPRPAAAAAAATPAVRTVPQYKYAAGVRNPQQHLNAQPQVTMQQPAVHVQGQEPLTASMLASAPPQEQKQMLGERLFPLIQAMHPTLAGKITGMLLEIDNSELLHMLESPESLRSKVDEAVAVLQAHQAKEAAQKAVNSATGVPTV

A short description of test [12]: inhibitors of Vif binding to APOBEC3G peptide, primary screen, biochemical, TR-FRET, GST-Vif 1-94, biotin-A3G peptide, dose response retest (AID 1117319).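 Further: TR-FRET signal of purified GST-Vif binding a biotinylated A3G peptide; inhibitors lower the FRET signal by blocking Vif and A3G binding.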 Format: functional.
In test [13] the target is T5, Polyadenylate-binding protein 1. Briefly: PABP1 MLLE–PAM2 interaction inhibitors, dose response, miRNA deadenylation inhibitor project, biochemical, fluorescence polarization, Cy5-PAM2 peptide, secondary (AID 602260). The class given is functional. Conditions: read-out: IC50_Mean.
Test [14] addresses T6, Leucine aminopeptidase (Plasmodium falciparum 3D7, UniProt Q8IL11).
T6 sequence (Q8IL11 whole entry): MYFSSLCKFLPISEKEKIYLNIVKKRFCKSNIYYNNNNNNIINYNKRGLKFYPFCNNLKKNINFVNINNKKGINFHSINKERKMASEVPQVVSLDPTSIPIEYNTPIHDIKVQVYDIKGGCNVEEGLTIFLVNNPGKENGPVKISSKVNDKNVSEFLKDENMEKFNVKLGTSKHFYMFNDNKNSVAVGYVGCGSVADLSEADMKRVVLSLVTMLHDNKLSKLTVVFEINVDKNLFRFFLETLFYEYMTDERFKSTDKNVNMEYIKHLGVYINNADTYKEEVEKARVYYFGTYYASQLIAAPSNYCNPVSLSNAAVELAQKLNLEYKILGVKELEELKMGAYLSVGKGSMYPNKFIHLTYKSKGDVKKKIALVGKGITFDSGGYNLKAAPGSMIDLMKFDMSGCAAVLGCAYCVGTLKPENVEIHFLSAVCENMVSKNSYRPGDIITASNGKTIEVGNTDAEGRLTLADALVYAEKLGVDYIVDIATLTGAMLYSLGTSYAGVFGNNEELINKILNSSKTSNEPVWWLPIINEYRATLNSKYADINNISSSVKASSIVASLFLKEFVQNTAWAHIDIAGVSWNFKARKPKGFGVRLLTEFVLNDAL
Briefly: P. falciparum M17LAP inhibitors, primary screen, biochemical, fluorogenic H-Leu-NHMec substrate, 1536-well (AID 1619). The class given is functional.

The target of test [15] is T7, Aspartyl aminopeptidase (Plasmodium falciparum 3D7, UniProt Q8I2J3).
T7 sequence (Q8I2J3 whole entry): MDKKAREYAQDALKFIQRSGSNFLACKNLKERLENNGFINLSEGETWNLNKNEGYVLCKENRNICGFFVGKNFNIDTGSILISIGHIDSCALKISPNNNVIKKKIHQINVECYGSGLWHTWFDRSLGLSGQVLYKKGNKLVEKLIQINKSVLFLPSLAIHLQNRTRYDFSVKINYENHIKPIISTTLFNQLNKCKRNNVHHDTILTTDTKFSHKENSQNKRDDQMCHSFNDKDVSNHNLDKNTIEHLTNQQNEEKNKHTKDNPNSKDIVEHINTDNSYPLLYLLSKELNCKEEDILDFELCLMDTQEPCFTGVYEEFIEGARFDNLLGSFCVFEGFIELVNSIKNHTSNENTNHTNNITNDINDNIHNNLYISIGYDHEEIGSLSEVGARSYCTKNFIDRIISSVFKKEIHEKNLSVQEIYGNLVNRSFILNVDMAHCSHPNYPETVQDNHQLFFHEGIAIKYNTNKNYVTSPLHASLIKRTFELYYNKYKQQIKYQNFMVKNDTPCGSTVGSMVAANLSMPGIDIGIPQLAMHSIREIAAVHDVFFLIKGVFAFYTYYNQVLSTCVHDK
Briefly: Counterscreen for inhibitors of M1 and M17 aminopeptidases: QFRET-based biochemical high throughput dose response assay for inhibitors of the Plasmodium falciparum M18 Aspartyl Aminopeptidase (PFM18AAP). [Related PubChem assays: 1619 (Screening assay (M17LAP inhibitors).), 1445 (Screening assay (M1AAP inhibitors).)]. (In general: The purpose of a counterscreen is to sort out artefacts and off-target activity.)

Test [16] concerns the target Procathepsin L (Homo sapiens, UniProt P07711). Briefly: cathepsin L inhibitors, dose response, counter-screen for M1/M17 aminopeptidase inhibitor project, biochemical, QFRET, 1536-well (AID 2214).

Usually EC50 stands for the concentration at which the effect is half-maximal. The term AC50 denotes the midpoint of the concentration-response curve, whichever way the signal moves. A word on the CC50: it is the concentration at which the toxic effect on the cells reaches its halfway point.

Calls of active or inactive are those of the source. A value given as a limit tells only on which side of the number the result lay.

Chain of Lytic switch protein BZLF1 (P03206 whole entry): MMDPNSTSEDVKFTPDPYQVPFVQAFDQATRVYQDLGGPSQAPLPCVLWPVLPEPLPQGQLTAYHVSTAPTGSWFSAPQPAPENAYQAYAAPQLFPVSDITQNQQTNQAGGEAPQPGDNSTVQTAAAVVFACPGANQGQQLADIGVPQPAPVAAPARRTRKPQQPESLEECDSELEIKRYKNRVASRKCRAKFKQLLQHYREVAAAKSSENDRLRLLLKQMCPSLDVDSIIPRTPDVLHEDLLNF
Chain of Procathepsin L (P07711 whole entry): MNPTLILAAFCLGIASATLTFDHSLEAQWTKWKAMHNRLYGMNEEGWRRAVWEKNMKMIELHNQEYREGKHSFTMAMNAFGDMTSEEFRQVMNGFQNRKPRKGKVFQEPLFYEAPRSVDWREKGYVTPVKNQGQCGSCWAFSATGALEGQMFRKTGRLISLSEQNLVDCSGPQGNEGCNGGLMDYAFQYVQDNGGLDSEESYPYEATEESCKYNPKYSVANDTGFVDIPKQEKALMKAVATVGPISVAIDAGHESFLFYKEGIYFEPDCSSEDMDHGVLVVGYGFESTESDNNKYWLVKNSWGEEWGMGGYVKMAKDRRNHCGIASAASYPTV
Chain of Sphingosine 1-phosphate receptor 1 (P21453 whole entry): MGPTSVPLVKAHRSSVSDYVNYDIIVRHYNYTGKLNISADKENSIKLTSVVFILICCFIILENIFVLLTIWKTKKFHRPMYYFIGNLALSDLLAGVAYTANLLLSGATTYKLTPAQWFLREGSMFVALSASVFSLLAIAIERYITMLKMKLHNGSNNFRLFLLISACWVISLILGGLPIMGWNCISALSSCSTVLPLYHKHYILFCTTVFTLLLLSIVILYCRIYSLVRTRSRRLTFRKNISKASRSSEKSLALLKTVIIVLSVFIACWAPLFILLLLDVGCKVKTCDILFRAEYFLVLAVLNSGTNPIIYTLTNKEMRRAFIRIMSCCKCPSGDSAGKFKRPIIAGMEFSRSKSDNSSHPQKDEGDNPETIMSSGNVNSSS

Consider `COc1cccc(-c2cc(C(=O)Nc3cc(C)nn3-c3ccccc3)no2)c1`, for which the concentration for a half-maximal effect (EC50) in test [1] was 12 µM (active).
As for `O=C(N/C(=C/c1ccc(Br)cc1)c1nc2ccccc2[nH]1)c1ccco1`, the IC50 in test [2] was 20 µM (not active); in test [3], 111 µM (not active).
`CCOC(=O)c1c(C)[nH]c(C)c1C(=O)CSc1nnc(-c2cc(OC)c(OC)c(OC)c2)o1`: the EC50 in test [1] was 12.5 µM (active).
With `COc1cc(NC(=O)COC(=O)/C=C/c2ccc(Cl)cc2Cl)cc(OC)c1`, the IC50 is on record as 16.1 µM (not active) in test [2] and > 111 µM (not active) in test [3].
For `CCC(C)[C@@H](NC(=O)OC(C)(C)C)c1nnc(S(=O)(=O)Cc2cccc(C)c2)o1` (some centres not stated), the IC50 is 2.61 µM (active) in [4], 3.23 µM (active) in test [5], > 49.8 µM (not active) in [6] and 0.826 µM (active) in test [9]. In addition, in test [7], the AC50 was 2.31 µM (active). Also, the 50% effective concentration (EC50) in test [8] is 2.5 µM (active).
As for `Cc1c(O)n(-c2ccc(F)cc2)c(SCC(=O)Nc2ccc3c4c(cccc24)CC3)nc1=O`, the CC50 in test [10] was > 40 µM (active). Besides, the IC50 is > 66 µM (inactive) in [11]; > 100 µM (active) in test [12]; > 66 µM (inactive) in test [13]; 6.36 µM (active) in [14]; > 73.5 µM (not active) in test [15]; > 59.6 µM (not active) in test [16].
For the compound `COc1cc(NC(=O)CSc2nc3cc(C)ccc3cc2C)c(C(=O)O)cc1OC`, the values for the IC50 in test [14], in test [15] and in test [16] were 1.93 µM (active), > 73.5 µM (not active) and > 59.6 µM (not active), respectively.
